B1: N-alpha-acetyl-L-ornithine deacetylase (ArgE) from Escherichia coli (enzyme, E. coli, UniProt P23908 1-383, looked up)
chain: MKNKLPPFIEIYRALIATPSISATEEALDQSNADLITLLADWFKDLGFNVEVQPVPGTRNKFNMLASIGQGAGGLLLAGHTDTVPFDDGRWTRDPFTLTEHDGKLYGLGTADMKGFFAFILDALRDVDVTKLKKPLYILATADEETSMAGARYFAETTALRPDCAIIGEPTSLQPVRAHKGHISNAIRIQGQSGHSSDPARGVNAIELMHDAIGHILQLRDNLKERYHYEAFTVPYPTLNLGHIHGGDASNRICACCELHMDIRPLPGMTLNELNGLLNDALAPVSERWPGRLTVDELHPPIPGYECPPNHQLVEVVEKLLGAKTEVVNYCTEAPFIQTLCPTLVLGPGSINQAHQPDEYLETRFIKPTRELITQVIHHFCWH
notes: N-alpha-acetyl-L-ornithine deacetylase (ArgE), Escherichia coli, full-length ORF amplified from genomic DNA; catalytic domain residues 1-179 and 305-383, dimerization domain residues 180-304; Crystallised in a mono-zinc form (PDB 7RSF) and a di-zinc form (PDB 8UW6); same protein and purification for both; Three N-terminal residues are not modelled in the structures; also called EcArgE; E. coli …

target: T1, EcArgE (Escherichia coli, UniProt P23908); assay: Ninhydrin-based ArgE enzyme assay (discontinuous, 570 nm); format: biochemical; conditions: not given
T1 construct: The open reading frame (ORF) of the full-length ArgE protein from E. coli was amplified; made in house; host or cells: E. coli
Method: A discontinuous assay was performed utilizing a Techne PCR Thermal Cycler System and assays were run with a total reaction volume of 100 µL and a final enzyme concentration of 10 nM. […] The selected inhibitors were dissolved in 50 mM KPi buffer, pH: 7.5 at 30°C and screened at 100 μM or other concentrations, depending on the type of experiment, followed by the EcArgE enzyme and incubated for 10 min. […] A 2% ninhydrin solution (50 μL) was added, and the mixture was mixed by pipetting while cooled to 0°C. The reaction was then heated to 100°C for 10 min. The absorbance of an 80 μL aliquot was recorded at 570 nm on a BioTek Synergy 2 microplate reader. The IC50 values and kinetic constants were calculated using GraphPad Prism using non-linear regression and the Michaelis-Menten equation.

| Molecule | IC50 [µM] |
| --- | --- |
| CCN(CC)c1ccc(B(O)O)cc1 [Entry 4, 4-(diethylamino)phenylboronic acid] | 50.1 |
| O=C(O)c1ccc(B(O)O)cc1 [Entry 5, 4-carboxyphenylboronic acid] | 54.1 |

same assay, conditions: 100 μM inhibitor, ninhydrin assay, substrate 3

| Molecule | inhibition at 100 µM [%] | % Inhibition at 100 μM |
| --- | --- | --- |
| OB(O)c1ccc2c(c1)OCO2 [Entry 20] | 47 ± 2.7 | – |
| OB(O)c1ccc(O)cc1 [Entry 9] | 29.8 ± 11.2 | – |
| OB(O)c1ccc(Oc2ccc(Cl)cc2)cc1 [Entry 16] | 55.7 ± 4.9 | – |
| CCN(CC)c1ccc(B(O)O)cc1 [Entry 4, 4-(diethylamino)phenylboronic acid] | 91.5 ± 1.5 | – |
| OB(O)c1ccc(Oc2ccc(F)cc2)cc1 [Entry 18] | 9.3 ± 1.8 | – |
| OB(O)c1cc(C(F)(F)F)cc(C(F)(F)F)c1 [Entry 22] | 0 | lacked activity |
| C[C@H](CS)C(=O)N1CCC[C@H]1C(=O)O [Entry 1, captopril, reference compound] | 57.8 ± 0.04 | – |
| CC(=O)Nc1ccc(B(O)O)cc1 [Entry 13] | 24 ± 6.9 | – |
| OB(O)c1ccc2ccccc2c1 [Entry 24] | 16.2 ± 6.1 | – |
| CN(C)c1ccc(C(=O)O)cc1 [Entry 28] | 41 ± 10.8 | – |
| CCN(CC)c1ccc(C(=O)O)cc1 [Entry 27] | 53.4 ± 2.6 | – |
| CC(=O)c1ccc(B(O)O)cc1 [Entry 12] | 15.8 ± 1.9 | – |
| N#Cc1ccc(B(O)O)cc1 [Entry 8] | 48 ± 2.6 | – |
| OB(O)c1ccc(F)cc1 [Entry 11] | 8.1 ± 4.1 | – |
| OB(O)c1ccccc1 [Entry 3, phenylboronic acid] | 41.9 ± 1.8 | – |
| OB(O)c1ccccc1C(F)(F)F [Entry 23] | 40.6 ± 9 | – |
| OB(O)c1ccc(OC(F)(F)F)cc1 [Entry 10] | 25.5 ± 2.4 | – |
| O=C(O)c1ccc(B(O)O)cc1 [Entry 5, 4-carboxyphenylboronic acid] | 80.4 ± 3.7 | – |
| OB(O)c1cccc(Cl)c1 [Entry 19] | 19.7 ± 3 | – |
| OB(O)c1ccc(Oc2ccc(OC(F)(F)F)cc2)cc1 [Entry 17] | 36 ± 5.8 | – |
| OB(O)c1ccc(Oc2ccccc2)cc1 [Entry 15] | 48.8 ± 2.7 | – |
| CS(=O)(=O)Nc1ccc(B(O)O)cc1 [Entry 14] | 23.5 ± 6.9 | – |
| Cc1ccc(B(O)O)cc1 [Entry 7] | 59 ± 9.4 | – |
| OB(O)c1cccc(OCc2ccccc2)c1 [Entry 21] | 40.3 ± 6.8 | – |
| OB(O)c1ccc(Cl)cc1 [Entry 6, 4-chlorophenylboronic acid] | 68.7 ± 1.2 | – |
| O=C(O)c1ccc([N+](=O)[O-])cc1 [Entry 26, 4-nitrobenzoic acid] | 57.9 ± 7.1 | – |

same assay, conditions: ArgE

| Molecule | mode of inhibition |
| --- | --- |
| C[C@H](CS)C(=O)N1CCC[C@H]1C(=O)O [Entry 1, captopril, reference compound] | […] |

Target: the molecule itself
Assay: crystal structure; EcArgE crystallised by sitting-drop vapor diffusion at 16°C; mono-Zn form from 1 M ammonium citrate, 0.1 M Bis-Tris propane pH 7.0; di-Zn form from 0.2 M lithium sulfate, 30% PEG 3350, 0.1 M Tris pH 8.5; dimer seen in the crystals
Conditions: not given

| Molecule | binding result |
| --- | --- |
| B1 | binds |

target: T2, ArgE (Escherichia coli, UniProt P23908); assay: biochemical; conditions: read-out: % inhibition at 2 mM

| Molecule | inhibition at 2000 µM [%] |
| --- | --- |
| NC(CO)(CO)CO [Tris] | 21.2 |

system: DapE; assay: not given; set-up: method as in Gillner et al., 2009; conditions: ref Gillner et al., 2009; cited from earlier work

| Molecule | IC50 [µM] | mode of inhibition |
| --- | --- | --- |
| C[C@H](CS)C(=O)N1CCC[C@H]1C(=O)O [Entry 1, captopril, reference compound] | […] | […] |

target: T2, ArgE; assay: Cleavage of alternative substrates by ArgE; format: biochemical; set-up: The open reading frame (ORF) of the full-length ArgE protein from E. coli was amplified; made in house; host or cells: E. coli; conditions: monitoring at 225 nm
Source text: Previously, Blanchard developed a simple, continuous 214 nm assay ([Javid-Majd and Blanchard, 2000]) using the endogenous substrate NAO to test potential inhibitors of ArgE. The 214 nm assay is a simple and reproducible assay but it is not useful for inhibitors that absorb strongly in the UV region, therefore excluding many drug-like molecules, as high background UV absorption would lead to greater background and obscure the actual enzyme cleavage data. […] As an alternative assay, we explored another potential substrate, p-nitrophenyl acetate, in the hope that ArgE would cleave the acetate to yield the product p-nitrophenol, but we observed no cleavage based on monitoring at 405 nm ([Means and Bender, 1975]). We also attempted the use of the DapE alternate substrate N ^6-methyl-N-succinyl-L,L-diaminopimelic acid (N ^6-methyl-SDAP) ([Heath et al., 2018]) because of the similarities between the ArgE and DapE active site structure but observed no cleavage of this synthetic substrate at 225 nm. We therefore designed a ninhydrin-based assay similar to our DapE ninhydrin-based assay ([Heath et al., 2018]) to enable the analysis of more structurally diverse inhibitors.

| Molecule | cleavage by ArgE |
| --- | --- |
| CN[C@@H](CCC[C@H](NC(=O)CCC(=O)O)C(=O)O)C(=O)O [N ^6-methyl-SDAP, N ^6-methyl-N-succinyl-L,L-diaminopimelic acid] | no cleavage |

same assay, conditions: monitoring at 405 nm

| Molecule | cleavage by ArgE |
| --- | --- |
| CC(=O)Oc1ccc([N+](=O)[O-])cc1 [p-nitrophenyl acetate] | no cleavage |

— article PMC11270798, “N ^ α -acetyl-L-ornithine deacetylase from Escherichia coli and a ninhydrin-based assay to enable inhibitor identification” (Frontiers in Chemistry, 2024)
